According to PubChem BioAssay AID1259408 (Genetic Toxicology Data Bank (GENE-TOX), 2018):
Calls of active or inactive are those of the source. No rule for the calls is given here.

Test system: GENE-TOX genotoxicity assays, various organisms and cells
Experiment: GENE-TOX mutagenicity studies
Settings: for call: Assay Type: In vivo carcinogenicity studies
Excerpt: GENE-TOX provides genetic toxicology (mutagenicity) test data from expert peer review of open scientific literature for more than 3,000 chemicals from the United States Environmental Protection Agency (EPA). GENE-TOX was established to select assay systems for evaluation, review data in the scientific literature, and recommend proper testing protocols and evaluation procedures for these systems.
GENE-TOX covers the years 1991 - 1998. It is no longer updated.
This is an archive assay for GENE-TOX mutagenicity studies.

[1] = Species/Cell Type: Salmonella typhimurium (one or more of the five standard strains: TA98, TA100, TA1535, TA1537, and TA1538), Assay Type: Histidine reverse gene mutation, Ames assay, Assay Code: SAL+, Evaluation Type: Evaluation A (Pre-1980)
[2] = Species/Cell Type: Chinese hamster ovary (CHO) cells, Assay Type: Forward gene mutation at the HPRT locus, Assay Code: CHO+, Evaluation Type: Evaluation B (Post-1980)
[3] = Species/Cell Type: Salmonella typhimurium (one or more of the five standard strains: TA98, TA100, TA1535, TA1537, and TA1538), Assay Type: Histidine reverse gene mutation, Ames assay, Assay Code: SAL+*, Activation: With metabolic activation, Evaluation Type: Evaluation A (Pre-1980)
[4] = Species/Cell Type: Mammalian polychromatic erythrocytes, Assay Type: Micronucleus test, chromosome aberrations, Assay Code: MNTT, Evaluation Type: Evaluation A (Pre-1980)
[5] = Species/Cell Type: Nonhuman, Assay Type: Sister-chromatid exchange (SCE) in vitro, Assay Code: SC2+D, Dose Response: With dose response, Evaluation Type: Evaluation B (Post-1980)
[6] = Species/Cell Type: Nonhuman, Assay Code: CCG+, Evaluation Type: Evaluation A (Pre-1980)
[7] = Species/Cell Type: Allium cepa, Assay Type: Chromosome aberrations, Assay Code: ALC+D, Dose Response: With dose response, Evaluation Type: Evaluation A (Pre-1980)
[8] = Species/Cell Type: Escherichia coli polA (W3119 vs P3478), Assay Type: Rec-assay, DNA effects (bacterial DNA repair), Assay Code: RE1+, Evaluation Type: Evaluation A (Pre-1980)
[9] = Species/Cell Type: Saccharomyces cerevisiae, Assay Type: Mitotic recombination or gene conversion, Assay Code: YEH+, Evaluation Type: Evaluation A (Pre-1980)
[10] = Species/Cell Type: Nonhuman, Assay Type: Sister-chromatid exchange (SCE) in vitro, Assay Code: SC2+, Evaluation Type: Evaluation B (Post-1980)

O=C(N[C@@H](CO)[C@@H](O)c1ccc([N+](=O)[O-])cc1)C(Cl)Cl
mutagenic call [1]: active; positive

CCN(CCCl)CCCNc1c2ccc(Cl)cc2nc2ccc(OC)nc12
mutagenic call [2]: active; positive

Cn1cnc2ncn(C)c2c1=O
mutagenic call (Species/Cell Type: Allium cepa, Assay Type: Chromosome aberrations, Assay Code: ALC-, Evaluation Type: Evaluation A (Pre-1980)): inactive; negative

COc1cc2c(c3ccc4ccccc4c13)CC=C2C
mutagenic call [3]: active; positive

c1csc(-c2ccc(-c3cccs3)s2)c1
mutagenic call (Species/Cell Type: Nonhuman, Assay Type: Sister-chromatid exchange (SCE) in vitro, Assay Code: SC2T, Evaluation Type: Evaluation B (Post-1980)): no conclusion

O=[N+]([O-])c1ccc(/C=C/c2nccn2Cc2ccccc2)o1
mutagenic call (Species/Cell Type: Neurospora crassa, Assay Type: Reverse gene mutation, Assay Code: NER+, Evaluation Type: Evaluation A (Pre-1980)): active; positive

Cc1ccc2c(c1)cc1ccccc1[n+]2C
mutagenic call (Species/Cell Type: Saccharomyces cerevisiae, Assay Type: Forward gene mutation, Assay Code: YEFT, Evaluation Type: Evaluation A (Pre-1980)): no conclusion

O=NN1CN2CN(C1)CN(N=O)C2
mutagenic call [4]: no conclusion | mutagenic call (Species/Cell Type: Mouse embryo (AKR/ME) cells, Assay Type: Cell transformation, Assay Code: CTK-, Evaluation Type: Evaluation A (Pre-1980)): inactive; negative | mutagenic call [5]: active; positive

CN/C(=C\[N+](=O)[O-])NCCSCc1ccc(CN(C)C)o1
mutagenic call (Species/Cell Type: Nonhuman, Assay Type: Sister-chromatid exchange (SCE) in vivo, Assay Code: SC3T, Evaluation Type: Evaluation B (Post-1980)): no conclusion

CS(=O)(=O)c1ccc([C@H](O)[C@H](CO)NC(=O)C(Cl)Cl)cc1
mutagenic call (Species/Cell Type: Salmonella typhimurium (one or more of the five standard strains: TA98, TA100, TA1535, TA1537, and TA1538), Assay Type: Histidine reverse gene mutation, Ames assay, Assay Code: SALT, Evaluation Type: Evaluation A (Pre-1980)): no conclusion

CCCCC(CC)COC(=O)c1ccccc1C(=O)OCC(CC)CCCC (stereo not given)
call [6]: active; positive | mutagenic call (Species/Cell Type: Nonhuman, Assay Type: Sister-chromatid exchange (SCE) in vitro, Assay Code: SC2T, Evaluation Type: Evaluation A (Pre-1980)): no conclusion | mutagenic call (Species/Cell Type: Rodents, Sex: Male, Assay Type: Dominant lethal test, Assay Code: DLT+, Evaluation Type: Evaluation A (Pre-1980)): active; positive

C=CBr
mutagenic call (Species/Cell Type: Tradescantia species, Assay Type: Gene mutation, Assay Code: TRM+D, Dose Response: With dose response, Evaluation Type: Evaluation A (Pre-1980)): active; positive

N[C@@H](CC(=O)O)C(=O)O
mutagenic call [7]: active; positive | mutagenic call (Species/Cell Type: Human, Sex: Male, Assay Type: Sperm morphology, Assay Code: SPH+, Evaluation Type: Evaluation A (Pre-1980)): active; positive

Cc1cc2ccccc2c2ccc3ccccc3c12
call [6]: active; positive | mutagenic call [3]: active; positive

CN(C)c1ccc(C(=N)c2ccc(N(C)C)cc2)cc1
mutagenic call [8]: active; positive | mutagenic call [4]: no conclusion | call (Species/Cell Type: Nonhuman, Assay Code: CCG+L, Evaluation Type: Evaluation A (Pre-1980)): active; positive | mutagenic call (Species/Cell Type: Nonhuman, Assay Type: Sister-chromatid exchange (SCE) in vitro, Assay Code: SC2+*, Activation: With metabolic activation, Evaluation Type: Evaluation B (Post-1980)): active; positive | mutagenic call (Species/Cell Type: Nonhuman, Assay Type: Sister-chromatid exchange (SCE) in vivo, Assay Code: SC3+, Evaluation Type: Evaluation B (Post-1980)): active; positive | mutagenic call [9]: active; positive | mutagenic call (Species/Cell Type: Salmonella typhimurium (one or more of the five standard strains: TA98, TA100, TA1535, TA1537, and TA1538), Assay Type: Histidine reverse gene mutation, Ames assay, Assay Code: SAL-, Evaluation Type: Evaluation A (Pre-1980)): inactive; negative | mutagenic call (Species/Cell Type: Syrian hamster embryo (SHE) cells, Assay Type: Cell transformation, clonal assay, Assay Code: CTCT, Evaluation Type: Evaluation A (Pre-1980)): no conclusion

Cc1cc2ccccc2oc1=O
mutagenic call [7]: active; positive

NC(=S)Nc1cccc2ccccc12
call (Species/Cell Type: Nonhuman, Assay Code: CCGT, Evaluation Type: Evaluation A (Pre-1980)): no conclusion | mutagenic call (Species/Cell Type: Syrian hamster embryo (SHE) cells, Assay Type: Cell transformation, clonal assay, Assay Code: CTC+, Evaluation Type: Evaluation A (Pre-1980)): active; positive

Nc1c2ccccc2nc2ccccc12
mutagenic call (Species/Cell Type: Human diploid fibroblasts, Assay Type: Unscheduled DNA synthesis (UDS) in vitro, DNA effects, Assay Code: UDH-, Evaluation Type: Evaluation A (Pre-1980)): inactive; negative | mutagenic call [10]: active; positive | mutagenic call [1]: active; positive

ClCCBr
mutagenic call [2]: active; positive | mutagenic call [8]: active; positive

C=CC1CO1 (stereo not given)
mutagenic call (Species/Cell Type: Nonhuman, Assay Type: Sister-chromatid exchange (SCE) in vivo, Assay Code: SC3+D, Dose Response: With dose response, Evaluation Type: Evaluation B (Post-1980)): active; positive

CCOP(=O)(OCC)SCCSCC (tested in a mixture with another compound)
mutagenic call (Species/Cell Type: Bacillus subtilis (H17 vs M45), Assay Type: Rec-assay, spot test, DNA effects (bacterial DNA repair), Assay Code: REW+, Evaluation Type: Evaluation A (Pre-1980)): active; positive | mutagenic call (Species/Cell Type: Drosophila melanogaster, Assay Type: Sex-linked recessive lethal gene mutation, Assay Code: SRL-, Evaluation Type: Evaluation A (Pre-1980)): inactive; negative | mutagenic call (Species/Cell Type: Escherichia coli WP2 UVRA, Assay Type: Tryptophan reverse gene mutation, Assay Code: WPU+D, Dose Response: With dose response, Evaluation Type: Evaluation A (Pre-1980)): active; positive | mutagenic call (Species/Cell Type: Escherichia coli polA (W3119 vs P3478), Assay Type: Rec-assay, DNA effects (bacterial DNA repair), Assay Code: RE1-, Evaluation Type: Evaluation A (Pre-1980)): inactive; negative | mutagenic call (Species/Cell Type: Nonhuman, Assay Type: Sister-chromatid exchange (SCE) in vitro, Assay Code: SC2+D*, Activation: With metabolic activation, Dose Response: With dose response, Evaluation Type: Evaluation B (Post-1980)): active; positive | mutagenic call [9]: active; positive | mutagenic call [1]: active; positive

CCCCOc1ccc(CC(=O)NOC(C)=O)cc1
mutagenic call [10]: active; positive

CN(N=O)C(=O)Nc1ccc(F)cc1
mutagenic call [5]: active; positive

CCOc1ccccc1[N+](=O)[O-]
mutagenic call [1]: active; positive

COc1ccc(CCC(=O)c2c(O)cc(O[C@@H]3O[C@H](CO)[C@@H](O)[C@H](O)[C@H]3O[C@@H]3O[C@@H](C)[C@H](O)[C@@H](O)[C@H]3O)cc2O)cc1O
mutagenic call (Species/Cell Type: Mammalian polychromatic erythrocytes, Assay Type: Micronucleus test, chromosome aberrations, Assay Code: MNT+, Evaluation Type: Evaluation B (Post-1980)): active; positive | mutagenic call (Species/Cell Type: Salmonella typhimurium, Assay Type: Forward and reverse gene mutation, host-mediated assay, Assay Code: HMA-, Evaluation Type: Evaluation A (Pre-1980)): inactive; negative

OCc1c2ccccc2cc2c1ccc1ccccc12
mutagenic call (Species/Cell Type: Mouse prostate cells, Assay Type: Cell transformation, Assay Code: CTM+, Evaluation Type: Evaluation A (Pre-1980)): active; positive
